Measurements taken from US10111420B2 (priority 2011, dated 2018).

Test: Sessile advancing contact angle of distilled water containing surfactants
Type: physicochemical
Settings: water on oven dry P. radiata
Protocol: The contact angle data is recorded using water because resins, by their nature, can continue to polymerise resulting in changes in viscosity which will change the wetting behaviour of the resin/surfactant mix. […] Water is also present in all amino resins as the carrier of the resin solids so it is important to understand the effect of the surfactant on water because this will have a direct relationship on the wetting performance of the resin. The contact angle shown below is the average of at least 5 measurements. The measurements were taken after 1 second and in some instances after half a second. Where the entry is “n/a” it indicates complete wetting i.e. a contact angle of 0° or very close to 0°.

- Contact angle @ 1 sec (surfactant 0.05%, octanol 0.1%): 31.0 °
- Contact angle @ 1 sec (surfactant 0.1%, octanol 0.1%): 9.5 °
- Contact angle @ 1 sec (surfactant 0.1%, octanol 0.25%): 8.99 °
SMILES: CCCCCCCCCCCCOS(=O)(=O)[O-].[Na+] [SDS]
